This note sets out measurements from US11834453B2, “Substituted pyrimido[5,4-d]pyrimidines as HER2 inhibitors” (Array BioPharma Inc., priority 2020, dated 2023).

The target of assay [1] is ErbB2 insYVMA (HER2-YVMA, SEQ ID NO: 2) (Homo sapiens, UniProt P04626, INS775YVMA/P1170A). Nature of the assay: biochemical. The settings on record: ErbB2 insYVMA enzyme assay.
Another assay deals with ErbB2 WT (Homo sapiens (Human), UniProt P04626). Nature of the assay: ErbB enzyme assay (CisBio HTRF KinEASE-TK), Assay 2. In kind it is biochemical. The procedure:
Compound potencies were determined using CisBio's HTRF Kinease-TK assay technology. The kinases were incubated with 250 nM TK-substrate biotin (CisBio, part of cat #62TK0PEC) at 1 mM ATP along with test compounds in a buffer consisting of 25 mM HEPES, pH 7.4, 10 mM MgCl2, 0.01% Triton X-100, and 2% DMSO in a volume of 8 μL. […] After 30-minute incubation at 22° C., the reaction was quenched by adding 8 μL of quench solution containing 62.5 nM Sa-XL665 and 0.25× TK-Ab-Cryptate in HTRF detection buffer (all from CisBio, part of cat #62TK0PEC). After a 1-hour incubation at 22° C., the extent of reaction was determined using a PerkinElmer EnVision multimode plate reader via HTRF dual wavelength detection, and the percent of control (POC) was calculated using a ratiometric emission factor. One hundred POC was determined using DMSO only samples (no compound present), and 0 POC was determined using pre-quenched control reactions.
(§1) Enzyme lots and concentration used are in Table 2.
(In general: TR-FRET usually uses a lanthanide donor and a delayed reading to cut background.)

A further assay addresses EGFR (Homo sapiens (Human), UniProt P00533). Nature of the assay: ErbB enzyme assay (CisBio HTRF KinEASE-TK), Assay 3. In kind it is biochemical. How it is done: Compound potencies were determined using CisBio's HTRF Kinease-TK assay technology. The kinases were incubated with 250 nM TK-substrate biotin (CisBio, part of cat #62TK0PEC) at 1 mM ATP along with test compounds in a buffer consisting of 25 mM HEPES, pH 7.4, 10 mM MgCl2, 0.01% Triton X-100, and 2% DMSO in a volume of 8 μL. Compounds were prepared as a three-fold serial dilution in DMSO and added to the assay to give the appropriate final concentration. After 30-minute incubation at 22° C., the reaction was quenched by adding 8 μL of quench solution containing 62.5 nM Sa-XL665 and 0.25× TK-Ab-Cryptate in HTRF detection buffer (all from CisBio, part of cat #62TK0PEC). After a 1-hour incubation at 22° C., the extent of reaction was determined using a PerkinElmer EnVision multimode plate reader via HTRF dual wavelength detection, and the percent of control (POC) was calculated using a ratiometric emission factor. One hundred POC was determined using DMSO only samples (no compound present), and 0 POC was determined using pre-quenched control reactions. A 4-parameter logistic curve was fit to the POC values as a function of the concentration of compound, and the IC50 value was the point where the best-fit curve crossed 50 POC.
as §1

Assay [2] deals with ErbB2 with Exon 20 YVMA insertion (HER2-YVMA) (Homo sapiens (Human), UniProt P04626, INS775YVMA). Briefly: Cellular phosphorylation assay, constitutive ErbB2 phosphorylation (Y1196) in engineered NIH 3T3 cells, Assay 4. The class given is cell-based. How it is done:
Serially diluted compounds were added to the plates for 1 hour at 37° C./5% CO2. EGFR WT cells were stimulated with 100 ng/ml rEGF for an additional 10 minutes at 37° C./5% CO2. After compound incubation, medium was removed from the cells, which were then fixed in 3.7% formaldehyde in PBS at room temperature for 20 minutes. Following a wash with PBS, cells were permeabilized with 100% methanol at room temperature for 10 minutes. Cells were then washed with PBS/0.05% Tween-20 and blocked with Odyssey blocking buffer (LI-COR Biosciences) for at least 1 hour at room temperature. Antibodies to phosphorylated ErbB2 (Y1196, Cell Signaling #6942) or phosphorylated EGFR (Y1068, Cell Signaling #3777) and GAPDH (Millipore #MAB374) were added to the cells in blocking buffer containing 0.05% azide and incubated overnight at 4° C. After washing with PBS/0.05° i° Tween-20, the cells were incubated with fluorescently labeled secondary anti-rabbit antibody (LiCOR, IRDye 800CW #926-32211) and anti-mouse antibody (Molecular Probes, Alexa Fluor 680 #A21058) for 1 hour at room temperature in the dark. Cells were then washed and analyzed for fluorescence at both wavelengths using the Odyssey Infrared Imaging System (LI-COR Biosciences). Phosphorylated ErbB2 and EGFR signal was normalized to GAPDH signal to generate curves and calculate IC50 values.

Where two headings read alike, the source gives them in different places. Bounds are passed on as bounds.

ErbB2 with Exon 20 YVMA insertion (HER2-YVMA), sequence (P04626 other isoform, or with tags, fused parts or gaps ins YVMA behind 775): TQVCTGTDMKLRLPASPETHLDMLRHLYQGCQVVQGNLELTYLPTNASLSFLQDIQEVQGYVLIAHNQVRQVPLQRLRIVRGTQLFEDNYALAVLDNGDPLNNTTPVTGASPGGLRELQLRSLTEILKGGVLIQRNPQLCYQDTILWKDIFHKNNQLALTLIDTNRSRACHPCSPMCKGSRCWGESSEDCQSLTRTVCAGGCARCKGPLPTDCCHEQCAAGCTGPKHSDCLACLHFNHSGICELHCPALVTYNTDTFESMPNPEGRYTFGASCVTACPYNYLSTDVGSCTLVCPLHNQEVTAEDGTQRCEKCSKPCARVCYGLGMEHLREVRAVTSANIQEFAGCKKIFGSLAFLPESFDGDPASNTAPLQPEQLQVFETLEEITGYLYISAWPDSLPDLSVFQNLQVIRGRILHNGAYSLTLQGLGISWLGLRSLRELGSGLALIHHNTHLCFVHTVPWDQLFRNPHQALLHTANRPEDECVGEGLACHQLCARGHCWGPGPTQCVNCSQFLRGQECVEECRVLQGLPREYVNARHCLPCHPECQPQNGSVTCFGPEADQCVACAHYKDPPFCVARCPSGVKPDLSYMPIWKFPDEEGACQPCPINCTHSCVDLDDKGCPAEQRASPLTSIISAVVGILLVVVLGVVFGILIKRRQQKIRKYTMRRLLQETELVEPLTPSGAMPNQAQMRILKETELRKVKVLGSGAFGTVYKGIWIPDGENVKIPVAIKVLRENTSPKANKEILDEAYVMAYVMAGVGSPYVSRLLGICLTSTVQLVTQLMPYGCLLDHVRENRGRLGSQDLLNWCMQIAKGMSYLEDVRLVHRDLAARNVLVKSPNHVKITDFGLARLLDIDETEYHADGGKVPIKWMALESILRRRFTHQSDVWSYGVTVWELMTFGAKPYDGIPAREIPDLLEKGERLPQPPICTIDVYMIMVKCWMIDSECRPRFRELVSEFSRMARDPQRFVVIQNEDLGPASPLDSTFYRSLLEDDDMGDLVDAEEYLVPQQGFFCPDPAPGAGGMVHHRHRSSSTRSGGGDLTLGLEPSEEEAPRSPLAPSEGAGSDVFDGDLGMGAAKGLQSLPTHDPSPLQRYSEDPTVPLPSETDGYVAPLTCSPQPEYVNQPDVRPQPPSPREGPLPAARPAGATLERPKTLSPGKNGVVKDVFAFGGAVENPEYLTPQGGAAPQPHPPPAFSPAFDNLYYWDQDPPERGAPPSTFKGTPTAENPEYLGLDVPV
EGFR, sequence (P00533 25-1210): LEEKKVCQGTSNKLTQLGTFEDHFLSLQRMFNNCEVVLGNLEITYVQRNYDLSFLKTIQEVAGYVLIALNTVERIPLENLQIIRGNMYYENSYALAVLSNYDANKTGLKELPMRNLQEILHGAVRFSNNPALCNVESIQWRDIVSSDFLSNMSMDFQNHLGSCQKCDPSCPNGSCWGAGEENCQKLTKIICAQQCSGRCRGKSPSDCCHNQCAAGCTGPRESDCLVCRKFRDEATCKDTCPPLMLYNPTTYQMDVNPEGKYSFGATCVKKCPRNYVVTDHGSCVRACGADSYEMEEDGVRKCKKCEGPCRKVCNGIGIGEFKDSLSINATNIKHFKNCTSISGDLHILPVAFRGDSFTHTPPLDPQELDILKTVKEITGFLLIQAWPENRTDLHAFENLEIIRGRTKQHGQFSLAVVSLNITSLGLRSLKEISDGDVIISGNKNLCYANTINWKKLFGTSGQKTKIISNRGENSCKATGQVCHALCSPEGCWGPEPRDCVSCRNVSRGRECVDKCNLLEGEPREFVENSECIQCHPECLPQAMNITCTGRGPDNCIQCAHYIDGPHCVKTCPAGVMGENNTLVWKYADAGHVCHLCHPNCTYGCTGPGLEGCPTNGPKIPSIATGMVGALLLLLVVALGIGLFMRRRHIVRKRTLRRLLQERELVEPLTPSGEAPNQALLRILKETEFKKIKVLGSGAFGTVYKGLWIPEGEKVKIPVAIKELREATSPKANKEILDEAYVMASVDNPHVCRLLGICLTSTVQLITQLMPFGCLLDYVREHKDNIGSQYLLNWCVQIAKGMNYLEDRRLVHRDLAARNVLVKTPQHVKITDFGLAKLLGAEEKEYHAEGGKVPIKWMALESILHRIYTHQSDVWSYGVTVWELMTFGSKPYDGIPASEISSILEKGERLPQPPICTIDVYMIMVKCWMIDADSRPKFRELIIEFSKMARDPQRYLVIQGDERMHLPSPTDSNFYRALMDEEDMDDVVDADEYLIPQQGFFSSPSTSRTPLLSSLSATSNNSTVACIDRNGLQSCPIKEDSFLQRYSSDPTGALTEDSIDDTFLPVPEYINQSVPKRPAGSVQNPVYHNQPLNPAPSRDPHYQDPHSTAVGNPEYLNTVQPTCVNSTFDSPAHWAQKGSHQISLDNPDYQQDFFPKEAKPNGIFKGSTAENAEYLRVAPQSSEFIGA
ErbB2 WT, sequence (P04626 23-1255): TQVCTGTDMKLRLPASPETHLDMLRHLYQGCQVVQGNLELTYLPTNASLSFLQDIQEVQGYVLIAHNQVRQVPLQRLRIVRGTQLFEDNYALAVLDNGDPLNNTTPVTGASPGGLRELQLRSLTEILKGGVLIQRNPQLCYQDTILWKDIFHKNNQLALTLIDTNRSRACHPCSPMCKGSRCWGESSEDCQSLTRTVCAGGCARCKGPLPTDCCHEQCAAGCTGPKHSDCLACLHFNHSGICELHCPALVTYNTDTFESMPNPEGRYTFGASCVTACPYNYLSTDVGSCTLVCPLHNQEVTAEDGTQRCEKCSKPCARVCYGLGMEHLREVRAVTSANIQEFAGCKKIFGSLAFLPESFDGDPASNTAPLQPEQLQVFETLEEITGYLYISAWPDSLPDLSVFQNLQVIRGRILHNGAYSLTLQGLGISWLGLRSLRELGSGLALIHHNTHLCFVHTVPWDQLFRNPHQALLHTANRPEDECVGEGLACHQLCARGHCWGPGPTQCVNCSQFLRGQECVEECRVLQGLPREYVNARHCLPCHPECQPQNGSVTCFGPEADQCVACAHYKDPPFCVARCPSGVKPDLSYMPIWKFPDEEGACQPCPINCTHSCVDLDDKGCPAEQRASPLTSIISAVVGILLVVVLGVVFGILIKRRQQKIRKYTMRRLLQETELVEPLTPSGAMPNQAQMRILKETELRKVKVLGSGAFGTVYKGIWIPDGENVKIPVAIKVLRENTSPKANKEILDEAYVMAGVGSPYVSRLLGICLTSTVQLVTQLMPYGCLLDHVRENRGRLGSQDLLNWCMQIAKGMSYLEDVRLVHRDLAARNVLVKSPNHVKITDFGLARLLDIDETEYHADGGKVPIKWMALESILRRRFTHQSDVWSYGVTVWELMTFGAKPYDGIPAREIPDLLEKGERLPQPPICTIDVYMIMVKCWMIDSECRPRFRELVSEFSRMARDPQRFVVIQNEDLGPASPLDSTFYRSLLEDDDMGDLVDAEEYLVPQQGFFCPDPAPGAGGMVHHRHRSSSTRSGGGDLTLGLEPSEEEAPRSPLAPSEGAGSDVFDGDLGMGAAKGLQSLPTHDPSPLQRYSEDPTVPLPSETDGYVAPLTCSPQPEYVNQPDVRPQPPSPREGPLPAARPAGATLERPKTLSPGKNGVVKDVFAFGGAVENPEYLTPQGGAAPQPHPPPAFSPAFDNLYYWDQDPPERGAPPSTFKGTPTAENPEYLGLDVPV
ErbB2 insYVMA (HER2-YVMA, SEQ ID NO: 2), sequence (P04626 with tags, fused parts or gaps INS775YVMA/P1170A limits assumed): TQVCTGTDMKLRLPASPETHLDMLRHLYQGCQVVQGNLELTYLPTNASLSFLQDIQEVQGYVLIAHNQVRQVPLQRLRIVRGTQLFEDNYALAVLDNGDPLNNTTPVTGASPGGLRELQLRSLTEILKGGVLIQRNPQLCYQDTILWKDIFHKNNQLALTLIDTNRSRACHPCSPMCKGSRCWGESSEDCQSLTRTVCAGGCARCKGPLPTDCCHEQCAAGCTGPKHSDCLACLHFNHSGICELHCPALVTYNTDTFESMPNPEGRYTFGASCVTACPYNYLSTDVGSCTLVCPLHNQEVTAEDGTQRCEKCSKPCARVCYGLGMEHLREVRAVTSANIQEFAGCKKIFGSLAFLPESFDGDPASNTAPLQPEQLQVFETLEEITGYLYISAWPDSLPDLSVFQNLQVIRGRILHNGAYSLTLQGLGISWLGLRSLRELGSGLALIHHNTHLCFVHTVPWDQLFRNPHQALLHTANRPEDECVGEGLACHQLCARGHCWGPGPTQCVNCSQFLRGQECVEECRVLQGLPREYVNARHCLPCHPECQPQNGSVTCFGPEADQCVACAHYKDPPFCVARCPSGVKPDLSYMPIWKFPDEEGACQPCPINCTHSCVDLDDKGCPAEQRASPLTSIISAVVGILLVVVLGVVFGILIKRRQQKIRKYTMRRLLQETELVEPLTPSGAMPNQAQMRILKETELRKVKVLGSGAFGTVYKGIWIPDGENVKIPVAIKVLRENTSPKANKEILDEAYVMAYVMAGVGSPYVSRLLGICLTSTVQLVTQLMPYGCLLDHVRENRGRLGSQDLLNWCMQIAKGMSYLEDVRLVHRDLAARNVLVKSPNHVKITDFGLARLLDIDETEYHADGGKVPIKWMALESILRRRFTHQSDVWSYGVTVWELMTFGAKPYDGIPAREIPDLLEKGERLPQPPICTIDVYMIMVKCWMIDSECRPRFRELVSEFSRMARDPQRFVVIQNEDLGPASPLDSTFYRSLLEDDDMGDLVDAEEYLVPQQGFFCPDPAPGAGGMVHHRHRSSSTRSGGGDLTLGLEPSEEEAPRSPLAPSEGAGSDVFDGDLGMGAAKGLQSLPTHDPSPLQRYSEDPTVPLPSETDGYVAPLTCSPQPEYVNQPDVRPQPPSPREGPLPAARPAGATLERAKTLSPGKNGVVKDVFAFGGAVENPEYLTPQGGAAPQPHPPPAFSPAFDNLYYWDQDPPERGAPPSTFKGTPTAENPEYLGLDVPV

Broadly, the IC50 is the concentration needed to halve the response being measured. In the case of `Cc1cc(Nc2ncnc3cnc(N[C@H](C)COC(F)(F)F)nc23)ccc1Oc1ccc2c(c1)ncn2C` [Example 64, (R)—N8-(3-methyl-4-((1-methyl-1H-benzo[d]imidazol-5-yl)oxy)phenyl)-N2-(1-(trifluoromethoxy)propan-2-yl)pyrimido[5,4-d]pyrimidine-2,8-diamine], the IC50 was 157 nM in assay [1] (read-out: Assay 1 IC50), 1300 nM at ErbB2 WT, at least 10000 nM at EGFR and 324 nM in assay [2].
On to `Cc1cc(Nc2ncnc3cnc(N4C[C@H](C)O[C@@H](C)C4)nc23)ccc1Oc1ccc2c(c1)ncn2C` [Example 72, 6-((2S,6S)-2,6-dimethylmorpholino)-N-(3-methyl-4-((1-methyl-1H-benzo[d]imidazol-5-yl)oxy)phenyl)pyrimido[5,4-d]pyrimidin-4-amine], for which the IC50 is 69.6 nM in assay [1] (Assay 1 IC50 (nM)), 83.9 nM against ErbB2 WT, at least 10000 nM against EGFR and 76.6 nM in assay [2].
For `CCn1cnc2cc(Oc3ccc(Nc4ncnc5cnc(N6CCOCC6)nc45)cc3C)ccc21` [Example 75, N-(4-((1-ethyl-1H-benzo[d]imidazol-5-yl)oxy)-3-methylphenyl)-6-morpholinopyrimido[5,4-d]pyrimidin-4-amine 2,2,2-trifluoroacetate], the IC50 is 51.8 nM in assay [1] (Assay 1 IC50 (nM)), 141 nM against ErbB2 WT, at least 10000 nM against EGFR and 23.9 nM in assay [2].
In the case of `COCCOc1ncc2ncnc(Nc3ccc(Oc4ccc5c(c4)ncn5C)c(C)c3)c2n1` [Example 76, 6-(2-methoxyethoxy)-N-(3-methyl-4-((1-methyl-1H-benzo[d]imidazol-5-yl)oxy)phenyl)pyrimido[5,4-d]pyrimidin-4-amine 2,2,2-trifluoroacetate], the IC50 is 337 nM in assay [1] (Assay 1 IC50 (nM)), 2340 nM against ErbB2 WT, at least 10000 nM at EGFR and 1300 nM in assay [2].
In the same order, the values of `Cn1cnc2cc(Oc3ccc(Nc4ncnc5cnc(N6CCOCC6)nc45)cc3Cl)ccc21` [Example 81, N-(3-chloro-4-((1-methyl-1H-benzo[d]imidazol-5-yl)oxy)phenyl)-6-morpholinopyrimido[5,4-d]pyrimidin-4-amine 2,2,2-trifluoroacetate] are 153 nM, 847 nM, at least 10000 nM and 77.1 nM.
For `CC(=O)N1C2CC1CN(c1ncc3ncnc(Nc4ccc(Oc5ccc6c(c5)ncn6C)c(C)c4)c3n1)C2` [Example 89, 1-(3-(8-((3-methyl-4-((1-methyl-1H-benzo[d]imidazol-5-yl)oxy)phenyl)amino)pyrimido[5,4-d]pyrimidin-2-yl)-3,6-diazabicyclo[3.1.1]heptan-6-yl)ethan-1-one], the IC50 in assay [1] (read-out: Assay 1 IC50) was 68.1 nM; against ErbB2 WT, 285 nM; against EGFR, at least 10000 nM; in assay [2], 187 nM.
In the same order, the values of `Cc1cc(Nc2ncnc3cnc(OCC(F)F)nc23)ccc1Oc1ccc2c(c1)ncn2C` [Example 177, 6-(2,2-difluoroethoxy)-N-(3-methyl-4-((1-methyl-1H-benzo[d]imidazol-5-yl)oxy)phenyl)pyrimido[5,4-d]pyrimidin-4-amine] are 53.2 nM, 150 nM, at least 10000 nM and 109 nM.
In the same order, the values of `CCCOc1ncc2ncnc(Nc3ccc(Oc4ccc5c(c4)ncn5C)c(C)c3)c2n1` [Example 221] are 122 nM, 334 nM, at least 10000 nM and 548 nM.
In the same order, the values of `Cc1cc(Nc2ncnc3cnc(N4CC5CC5(C)C4)nc23)ccc1Oc1ccc2c(c1)ncn2C` (stereo not shown) [Example 225] are 149 nM, 218 nM, at least 10000 nM and 85.4 nM.
In the case of `CO[C@@H]1CCCN(c2ncc3ncnc(Nc4ccc(Oc5ccc6c(c5)ncn6C)c(C)c4)c3n2)C1` [Example 227], the half-inhibitory concentration (IC50) in assay [1] (read-out: Assay 1 IC50) was 47.4 nM; against ErbB2 WT, 66.9 nM; against EGFR it was at least 10000 nM; in assay [2], 53.8 nM.
In the case of `Cc1cc(Nc2ncnc3cnc(N4CCC[C@@H]4C(F)(F)F)nc23)ccc1Oc1ccc2c(c1)ncn2C` [Example 229], the IC50 was 171 nM in assay [1] (read-out: Assay 1 IC50), 376 nM against ErbB2 WT, at least 10000 nM at EGFR and 165 nM in assay [2].
In the same order, the values of `Cc1cc(Nc2ncnc3cnc(N4CCC(F)(F)CC4)nc23)ccc1Oc1ccc2c(c1)ncn2C` [Example 236] are 149 nM, 352 nM, at least 10000 nM and 89.9 nM.
Take `COC1CC2(C1)CN(c1ncc3ncnc(Nc4ccc(Oc5ccc6c(c5)ncn6C)c(C)c4)c3n1)C2` [Example 237]: the IC50 was 32 nM in assay [1] (read-out: Assay 1 IC50), 70.2 nM at ErbB2 WT, at least 10000 nM on EGFR and 71.6 nM in assay [2].
With `Cc1cc(Nc2ncnc3cnc(N4CCC4C(F)(F)F)nc23)ccc1Oc1ccc2c(c1)ncn2C` (stereo not shown) [Example 238], the IC50 in assay [1] (read-out: Assay 1 IC50) was 99.3 nM; against ErbB2 WT it was 227 nM; against EGFR, at least 10000 nM; in assay [2] it was 163 nM.
The like results for `Cc1cc(Nc2ncnc3cnc(N4CCCCC4)nc23)ccc1Oc1ccc2c(c1)ncn2C` [Example 242] were, in that order, 111 nM, 130 nM, at least 10000 nM and 76.3 nM.
The like results for `Cc1cc(Nc2ncnc3cnc(N4CC(OC(F)F)C4)nc23)ccc1Oc1ccc2c(c1)ncn2C` [Example 244] were, in that order, 41.9 nM, 107 nM, at least 10000 nM and 92.2 nM.
In the same order, the values of `Cc1cc(Nc2ncnc3cnc(N4CC(COC(F)F)C4)nc23)ccc1Oc1ccc2c(c1)ncn2C` [Example 245] are 50.4 nM, 142 nM, at least 10000 nM and 109 nM.
Consider `Cc1cc(Nc2ncnc3cnc(N4CC(C)(O)C4)nc23)ccc1Oc1ccc2c(c1)ncn2C` [Example 246], for which the IC50 in assay [1] (read-out: Assay 1 IC50) is 28.2 nM; at ErbB2 WT, 70.8 nM; at EGFR, at least 10000 nM; in assay [2], 103 nM.
Turning to `CO[C@H]1CCCN(c2ncc3ncnc(Nc4ccc(Oc5ccc6c(c5)ncn6C)c(C)c4)c3n2)C1` [Example 248], the half-maximal inhibitory concentration (IC50) in assay [1] (read-out: Assay 1 IC50) is 57.4 nM; at ErbB2 WT, 122 nM; on EGFR, at least 10000 nM; in assay [2] it was 65.7 nM.
The like results for `Cc1cc(Nc2ncnc3cnc(N4CC[C@H](C)C4=O)nc23)ccc1Oc1ccc2c(c1)ncn2C` [Example 250] were, in that order, 46.3 nM, 67.6 nM, at least 10000 nM and 54.6 nM.
In the same order, the values of `Cc1cc(Nc2ncnc3cnc(N4C5COCC4C5)nc23)ccc1Oc1ccc2c(c1)ncn2C` [Example 255] are 113 nM, 434 nM, at least 10000 nM and 160 nM.
Consider `Cc1cc(Nc2ncnc3cnc(N4CCOC[C@@H]4C)nc23)ccc1Oc1ccc2c(c1)ncn2C` [Example 258], for which the IC50 in assay [1] (read-out: Assay 1 IC50) is 88.3 nM; against ErbB2 WT, 177 nM; at EGFR, at least 10000 nM; in assay [2] it was 51.4 nM.
